These are literature values, as cited in US20110009373A1, “COMPOSITION COMPRISING A COMBINATION OF AN AROMATASE INHIBITOR, A PROGESTIN AND AN OESTROGEN AND ITS USE FOR THE TREATMENT OF ENDOMETRIOSIS” (ASTRAZENECA AB, priority 2003, published 2011).

In this data set the test system is endometriotic lesion. Conditions: addition of oestrogen to letrozole; wild type mice and aromatase knockout mice.

For the compound `N#Cc1ccc(C(c2ccc(C#N)cc2)n2cncn2)cc1` [letrozole], the Endometriotic lesion sizes entry is listed as “increases in the endometriotic lesion sizes”.
